The target in data set [1] is Protein cereblon/Cyclin-dependent kinase 12 (Homo sapiens) (UniProt Q9NYV4+Q96SW2). Put plainly: PROTAC activity at CRBN/CDK12 in human HeLa cells assessed as induction of CDK12 degradation measured after 24 hrs by fluorescence based cytoblot assay. The data set is classed as cell-based.
Data set [2] addresses T1, von Hippel-Lindau disease tumor suppressor/Cyclin-dependent kinase 12 (Homo sapiens, UniProt P40337+Q9NYV4). Put plainly: PROTAC activity at VHL/CDK12 in human HeLa cells assessed as induction of CDK12 degradation measured after 24 hrs by fluorescence based cytoblot assay. The class given is cell-based.
Data set [3] deals with T1, von Hippel-Lindau disease tumor suppressor/Cyclin-dependent kinase 12. In words: PROTAC activity at VHL/CDK12 in human HeLa cells assessed as induction of CDK12 degradation measured after 24 hrs by Western blotting analysis. The class given is cell-based.
For a further data set, the system named is HeLa. Put plainly: Antiproliferative activity against human HeLa cells assessed as inhibition of cell growth measured after 96 hrs by SRB assay. The class given is functional, cell-based.
For data set [4], the system named is MDA-MB-231. In words: Antiproliferative activity against human MDA-MB-231 cells assessed as inhibition of cell growth measured after 96 hrs by SRB assay. The class given is functional, cell-based. To be noted: MDA-MB-231, 96 h. A general note: In SRB staining, fixed cells bind dye roughly in proportion to their protein.
Another data set concerns Bel-7402. In words: Antiproliferative activity against human Bel-7402 cells assessed as inhibition of cell growth measured after 96 hrs by SRB assay. The data set is classed as functional, cell-based. To be noted: Bel-7402, 96 h.
A further data set has as its system HCT-116. Put plainly: Antiproliferative activity against human HCT-116 cells assessed as inhibition of cell growth measured after 96 hrs by SRB assay. The class given is functional, cell-based. As to conditions: HCT-116, 96 h.
The nature of data set [5]: Cytotoxicity against human L02 cells assessed as inhibition of cell growth measured after 96 hrs by SRB assay. The class given is toxicity, cell-based.
The subject of data set [6] is MDA-MB-231. Put plainly: Synergistic antiproliferative activity against human MDA-MB-231 cells assessed as combination index at 500 nM incubated for 14 days in presence of olaparib by sulforhodamine B staining based Chou-Talalay method. The class given is functional. To be noted: time 14 day.

Calls of active or inactive are those of the source. No cut-off for these calls is given here.

T1 sequence (P40337 whole entry): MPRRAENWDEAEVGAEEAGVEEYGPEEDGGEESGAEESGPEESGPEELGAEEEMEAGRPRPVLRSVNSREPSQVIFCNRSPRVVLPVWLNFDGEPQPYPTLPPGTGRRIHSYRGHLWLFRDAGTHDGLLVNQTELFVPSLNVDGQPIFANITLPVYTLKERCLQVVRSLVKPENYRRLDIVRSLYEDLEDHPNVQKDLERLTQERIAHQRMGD
T1 sequence (Q9NYV4 whole entry): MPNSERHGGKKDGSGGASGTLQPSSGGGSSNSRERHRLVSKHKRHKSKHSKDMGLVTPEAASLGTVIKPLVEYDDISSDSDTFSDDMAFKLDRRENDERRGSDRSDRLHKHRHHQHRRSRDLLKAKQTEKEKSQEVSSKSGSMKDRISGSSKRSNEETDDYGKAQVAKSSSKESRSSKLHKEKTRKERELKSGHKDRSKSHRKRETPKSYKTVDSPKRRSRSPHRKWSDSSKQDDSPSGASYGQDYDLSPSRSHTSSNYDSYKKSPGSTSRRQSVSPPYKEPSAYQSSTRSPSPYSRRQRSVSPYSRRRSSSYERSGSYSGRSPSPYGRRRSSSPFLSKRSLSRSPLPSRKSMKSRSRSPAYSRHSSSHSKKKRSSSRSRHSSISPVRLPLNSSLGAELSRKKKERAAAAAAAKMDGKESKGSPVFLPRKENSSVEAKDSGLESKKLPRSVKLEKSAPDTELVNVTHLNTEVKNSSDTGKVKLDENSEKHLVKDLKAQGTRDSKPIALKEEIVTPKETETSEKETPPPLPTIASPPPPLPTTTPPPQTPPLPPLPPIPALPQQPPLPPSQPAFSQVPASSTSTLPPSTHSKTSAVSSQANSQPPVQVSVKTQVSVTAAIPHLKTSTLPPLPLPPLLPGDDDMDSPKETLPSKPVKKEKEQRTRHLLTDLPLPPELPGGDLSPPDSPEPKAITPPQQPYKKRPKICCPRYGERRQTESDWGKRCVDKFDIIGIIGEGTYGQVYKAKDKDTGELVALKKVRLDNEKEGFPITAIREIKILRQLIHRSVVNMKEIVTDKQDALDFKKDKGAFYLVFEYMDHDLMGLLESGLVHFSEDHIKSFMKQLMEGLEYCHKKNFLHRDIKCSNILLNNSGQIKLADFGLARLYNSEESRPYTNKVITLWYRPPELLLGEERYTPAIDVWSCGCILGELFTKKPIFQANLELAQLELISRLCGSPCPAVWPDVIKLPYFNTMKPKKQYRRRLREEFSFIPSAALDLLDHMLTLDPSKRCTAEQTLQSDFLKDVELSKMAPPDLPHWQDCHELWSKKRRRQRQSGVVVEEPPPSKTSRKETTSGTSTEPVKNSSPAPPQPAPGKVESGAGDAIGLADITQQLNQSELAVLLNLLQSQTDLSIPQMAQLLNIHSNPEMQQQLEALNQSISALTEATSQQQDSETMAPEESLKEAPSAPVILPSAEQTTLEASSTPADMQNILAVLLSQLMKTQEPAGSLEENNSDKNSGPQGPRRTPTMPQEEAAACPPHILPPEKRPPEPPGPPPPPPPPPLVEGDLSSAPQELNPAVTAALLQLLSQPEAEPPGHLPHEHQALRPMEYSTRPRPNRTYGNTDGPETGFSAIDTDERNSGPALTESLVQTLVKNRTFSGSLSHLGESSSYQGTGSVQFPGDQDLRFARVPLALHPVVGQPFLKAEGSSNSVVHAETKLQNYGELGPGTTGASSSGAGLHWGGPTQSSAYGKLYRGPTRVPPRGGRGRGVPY
Chain of Protein cereblon/Cyclin-dependent kinase 12 (Homo sapiens) (Q96SW2 whole entry, looked up): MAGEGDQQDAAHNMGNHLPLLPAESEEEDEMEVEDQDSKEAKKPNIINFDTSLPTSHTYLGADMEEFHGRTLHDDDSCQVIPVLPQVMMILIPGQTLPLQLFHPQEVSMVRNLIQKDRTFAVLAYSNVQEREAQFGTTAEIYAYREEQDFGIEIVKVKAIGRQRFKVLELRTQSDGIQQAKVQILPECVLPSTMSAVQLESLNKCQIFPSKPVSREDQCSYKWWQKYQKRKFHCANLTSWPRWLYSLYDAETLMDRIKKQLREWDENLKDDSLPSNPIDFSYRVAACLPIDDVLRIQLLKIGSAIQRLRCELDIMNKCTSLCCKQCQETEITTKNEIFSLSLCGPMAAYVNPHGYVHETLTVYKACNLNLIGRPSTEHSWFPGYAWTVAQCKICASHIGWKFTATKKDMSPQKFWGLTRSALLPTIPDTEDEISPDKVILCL
Chain of Protein cereblon/Cyclin-dependent kinase 12 (Homo sapiens) (Q9NYV4 whole entry, looked up): as the sequence (Q9NYV4 whole entry) above

On to `CC(C)S(=O)(=O)c1ccccc1Nc1nc(N[C@@H]2CCCN(CCCCc3cn(CCCCCCCOc4cccc5c4C(=O)N(C4CCC(=O)NC4=O)C5=O)nn3)C2)ncc1Cl` (some centres not stated), for which the result in data set [1] was Active.
By DC50 is commonly meant the concentration giving 50% degradation. The term IC50 denotes the concentration needed to halve the response being measured. Regarding `Cc1ncsc1-c1ccc([C@H](C)NC(=O)[C@@H]2C[C@@H](O)CN2C(=O)[C@@H](NC(=O)CCCCCCNC(=O)CN2CCC[C@@H](Nc3ncc(Cl)c(Nc4ccccc4S(=O)(=O)C(C)C)n3)C2)C(C)(C)C)cc1`, the results for the DC50 in data set [2] and in data set [3] were 74 nM and 85 nM, respectively. The IC50 with HeLa is 316 nM; in the data set with MDA-MB-231 [4], 468 nM; in the data set on Bel-7402, 491 nM; with HCT-116 it was 665 nM. For the same compound, in data set [5], the IC50 at 96 h is above 1000 nM. Further, the CI with MDA-MB-231 [6] came to 0.17.
With `CC(C)S(=O)(=O)c1ccccc1Nc1nc(N[C@@H]2CCCN(CCCCCCCNC(=O)COc3cccc4c3C(=O)N(C3CCC(=O)NC3=O)C4=O)C2)ncc1Cl` (some centres not stated), the figures for the DC50 in [2] and in [3] were 57 nM and 83 nM, respectively.
`CC(C)S(=O)(=O)c1ccccc1Nc1nc(N[C@@H]2CCCN(CCCCc3cn(CCCCCCCOc4ccc5c(c4)C(=O)N(C4CCC(=O)NC4=O)C5=O)nn3)C2)ncc1Cl` (some centres not stated): the result in data set [1] was Active.
As to `CN(C)C/C=C/C(=O)Nc1ccc(C(=O)N2CCC[C@@H](Nc3ncc(Cl)c(-c4c[nH]c5ccccc45)n3)C2)cc1`, the IC50 with HeLa stood at 106 nM; in the data set with MDA-MB-231 [4], 133 nM; with Bel-7402 it was 650 nM; in the data set on HCT-116, 89 nM. In addition, the IC50 at 96 h in data set [5] turned out to be 119 nM.

Source of the values: ChEMBL document CHEMBL5346915, “A practical "preTACs-cytoblot" platform accelerates the streamlined development of PROTAC-based protein degraders” (Eur J Med Chem, 2023).
